{"source": "BindingDB's records for doi:10.1021/jm950543x", "about": "(University of Caen Normandy, 1996)", "experiment": "Binding affinity for 5-hydroxytryptamine 2C receptor"}
{"smiles": "CN1CCN(c2nc3sccc3n3cccc23)CC1", "values": [{"measurement": "IC50", "result": 355, "unit": "nM"}]}
